Here are results for one compound from patent US20220160703A1, “TUMOR-SELECTIVE COMBINATION THERAPY” (The Board of Regents of The University of Texas System, priority 2019, published 2022).

In experiment [1] the test system is B16 tumors. As to the kind of experiment: B16 (NQO1 null or NQO1 overexpressing) tumor model. In kind it is in vivo, mice.
For experiment [2], the system named is HMGB1. Kind of experiment: HMGB1 release detection (ELISA). It counts as cell-based, murine. Conditions: NQO1+ tumor cells (MC38, TC-1, NQO1-overexpressing B16), β-lap 3 hr, 24 hr later. On the procedure:
FIGS. 5A-F. β-Lap treatment-induced HMGB1 release enhances tumor immunogenicity and triggers antitumor T cell immunity in vivo. (FIG. 5A) MC38, TC-1 and B16 (NQO null and overexpression clones) were treated with β-lap for 3 hr followed by washing and replacing medium. The level of HMGB1 released into the culture supernatant was determined by ELISA 24 hr later. (FIG. 5B) The research schema for in vivo cross-presentation of tumor specific antigen from β-lap-induced dying tumor cells in FIG. 5C and FIG. 5D. (FIGS. 5C-D) Live or β-lap-induced dying MC38-OVA cells were subcutaneously inoculated into the flank of WT or Tlr4^−/− C57BL/6 (n=3-4/group) mice along with or without anti-HMGB1 antibody. […] IFNγ producing cells were determined by ELISPOTs assay (FIG. 5C), and IFNγ secretion level was quantified by CBA mouse IFNγ assay (FIG. 5D). […] Data are shown as mean±SEM from at least two to three independent experiments. *P<0.05, **P<0.01, and ***P<0.001 determined by two-way ANOVA (FIG. 5C and FIG. 5D) or log-rank test (FIG. 5F).
FIGS. 25A-E. IB-DNQ induces tumor ICD and dendritic cell-mediated T cell cross-priming. […] MC38, MC38 NOQ1^−/−, B16, and B16 NOQ1^+ cells were treated with IB-DNQ for 4 h followed by replacing medium and growth for 24 h, culture supernatant was collected and HMGB1 levels were determined by ELISA. […]

Experiment [3] deals with MC38 tumor. As to the kind of experiment: MC38 subcutaneous syngeneic tumor model. In kind it is in vivo, mice.
Experiment [4] has as its target NQO1 (Homo sapiens, UniProt P15559). To be noted: in ~2 min; cited from earlier work.

Sequence of NQO1 (P15559 whole entry, species assumed): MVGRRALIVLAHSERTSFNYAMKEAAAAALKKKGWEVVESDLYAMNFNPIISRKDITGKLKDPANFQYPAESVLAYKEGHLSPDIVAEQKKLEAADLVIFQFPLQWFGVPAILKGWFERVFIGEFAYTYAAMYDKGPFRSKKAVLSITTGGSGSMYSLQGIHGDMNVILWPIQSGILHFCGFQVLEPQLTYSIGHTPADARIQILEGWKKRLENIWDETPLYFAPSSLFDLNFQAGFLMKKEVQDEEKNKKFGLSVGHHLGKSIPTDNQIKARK

Broadly, the TGI is how far tumour growth fell short of that in controls. A high value points to much slowing of growth. Take `CC1(C)CCC2=C(O1)c1ccccc1C(=O)C2=O` [β-lap, β-lapachone]: the tumor response entry in experiment [1] (NQO1null parental B16, β-lap 0.3 mg i.t. four times) was “didn't response”; in experiment [1] (NQO1 overexpressing B16 clone #1 and #4, β-lap 0.3 mg i.t. four times), “dramatic tumor suppression”. The TGI in experiment [1] (NQO1 overexpressing B16 tumors (about 100 mm^3), β-lap 0.3 mg i.t. four times, anti-PD-L1 150 μg i.p. three times) was 68.67%; in experiment [3] (small tumors (about 50 mm^3), β-lap 0.3 mg i.t. four times), 93.0%. Further, the HMGB1 secretion entry in experiment [2] is reported as “dose-dependent secretion of HMGB1”. For the same compound, the “tumor growth with irradiation” value in experiment [3] (10 Gy + 0.1 mg β-lap, 3 i.t. injections, tumors 100 mm^3) is reported as “significant inhibition of tumor growth”. Further, in experiment [3] (10 Gy + β-lap 30 mg/kg i.p. every other day, 6 injections, tumors 50 mm3), the response with irradiation result was “significant synergistic responses”. Moreover, in experiment [3] (NQO1 KO MC38, 0.3 mg i.t. four times), the “therapeutic effect in NQO1 knockout MC38 mouse models” value is reported as “abolished”. This compound returned a mice cured in experiment [3] (WT C57BL/6, 4 doses of β-lap (0.3 mg, i.t.)) of 50%. Besides, the “mice with complete tumor rejection” value in experiment [3] (local β-lap 15 mg/kg, 7/15 mice) was 46.7%. For the same compound, the “antitumor efficacy with anti-IFNAR blocking antibody” value in experiment [3] (β-lap 0.1 mg i.t., anti-IFNAR Ab 150 μg) is reported as “greatly impaired the antitumor efficacy”. Moreover, the “effect with HMGB1 blockade” value in experiment [3] (β-lap 0.3 mg i.t. + anti-HMGB1 200 μg i.p.) is listed as “diminished the effect”. Moreover, the “therapeutic effect with neutrophil depletion” value in experiment [3] (β-lap 0.3 mg i.t. + anti-Ly-6G 200 μg) is “greatly impaired the therapeutic effect”. Besides, the “tumor regression in IFNAR knockout mice” value in experiment [3] (β-lap 0.3 mg i.t. day 9, 12, 15) is on record as “totally abrogated”. The “therapeutic effect in Ifnar−/− mice” value in experiment [3] (β-lap 0.3 mg i.t. four times) is “abrogated”. The “antitumor effect alone or with CD4+ T cell depletion” value in experiment [3] (β-lap 0.3 mg i.t. ± anti-CD4 200 μg) is recorded as “controlled MC38 tumor growth”. The “tumor growth, systemic treatment” value in experiment [3] (β-lap 30 mg/kg i.p. six times, anti-PD-L1, tumors about 50-100 mm^3) is on record as “moderate inhibition of tumor growth”. Also, the “NAD(P)H consumed by one mole of drug” value in experiment [4] is around 60 mol. Besides, in experiment [4], the “superoxide generated by one mole of drug” value is around 120 mol.
